The values that follow come from patent US20200239420A1, “MODULATORS OF INDOLEAMINE 2,3-DIOXYGENASE” (GLAXOSMITHKLINE INTELLECTUAL PROPERTY DEVELOPMENT LIMITED, priority 2017, published 2020).

The nature of one data set: Rat PK. In kind it is in vivo. The note with it: male Han Wistar rats, n = 3.
In data set [1] the target is T1, indoleamine 2, 3-dioxygenase (IDO1) (Homo sapiens, UniProt P14902).
T1 construct: to induce the expression of indoleamine 2, 3-dioxygenase (IDO1); host or cells: human PBMC stimulated with IFN-gamma and LPS
T1 sequence (P14902 whole entry): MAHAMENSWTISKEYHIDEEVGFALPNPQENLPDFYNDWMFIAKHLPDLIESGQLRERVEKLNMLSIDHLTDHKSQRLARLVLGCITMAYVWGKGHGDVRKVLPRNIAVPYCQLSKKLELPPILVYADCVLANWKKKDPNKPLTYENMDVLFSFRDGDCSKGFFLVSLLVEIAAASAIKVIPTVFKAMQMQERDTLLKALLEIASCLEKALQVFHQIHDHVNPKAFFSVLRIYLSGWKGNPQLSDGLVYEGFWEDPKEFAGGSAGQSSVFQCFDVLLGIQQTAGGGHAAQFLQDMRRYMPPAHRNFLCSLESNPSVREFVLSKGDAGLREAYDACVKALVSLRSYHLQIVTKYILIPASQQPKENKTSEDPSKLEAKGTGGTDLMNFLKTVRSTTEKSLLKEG
As to the kind of experiment: IDO1 PBMC RapidFire MS assay (kynurenine detection). In kind it is cell-based. The note with it: IFN-γ/LPS-stimulated human PBMC, 2 days, kynurenine by mass spectrometry; read-out: PBMC pIC50 (converted). On the procedure: (§1) Compounds of the present invention were tested via high-throughput cellular assays utilizing detection of kynurenine via mass spectrometry and cytotoxicity as end-points. For the mass spectrometry and cytotoxicity assays, human peripheral blood mononuclear cells (PBMC) (PB003F; AllCells®, Alameda, Calif.) were stimulated with human interferon-γ (IFN-γ) (Sigma-Aldrich Corporation, St. Louis, Mo.) and lipopolysaccharide from Salmonella minnesota (LPS) (Invivogen, San Diego, Calif.) to induce the expression of indoleamine 2, 3-dioxygenase (IDO1). Compounds with IDO1 inhibitory properties decreased the amount of kynurenine produced by the cells via the tryptophan catabolic pathway. Cellular toxicity due to the effect of compound treatment was measured using CellTiter-Glo® reagent (CTG) (Promega Corporation, Madison, Wis.), which is based on luminescent detection of ATP, an indicator of metabolically active cells.
(§2) In preparation for the assays, test compounds were serially diluted 3-fold in DMSO from a typical top concentration of 1 mM or 5 mM and plated at 0.5 μL in 384-well, polystyrene, clear bottom, tissue culture treated plates with lids (Greiner Bio-One, Kremsmünster, Austria) to generate 11-point dose response curves. Low control wells (0% kynurenine or 100% cytotoxicity) contained either 0.5 μL of DMSO in the presence of unstimulated (−IFN-γ/−LPS) PBMCs for the mass spectrometry assay or 0.5 μL of DMSO in the absence of cells for the cytotoxicity assay, and high control wells (100% kynurenine or 0% cytotoxicity) contained 0.5 μL of DMSO in the presence of stimulated (+IFN-γ/+LPS) PBMCs for both the mass spectrometry and cytotoxicity assays.
(§3) Frozen stocks of PBMCs were washed and recovered in RPMI 1640 medium (Thermo Fisher Scientific, Inc., Waltham, Mass.) supplemented with 10% v/v heat-inactivated fetal bovine serum (FBS) (Thermo Fisher Scientific, Inc., Waltham, Mass.), and 1× penicillin-streptomyci antibiotic solution (Thermo Fisher Scientific, Inc., Waltham, Mass.). The cells were diluted to 1,000,000 cells/mL in the supplemented RPMI 1640 medium. 50 μL of either the cell suspension, for the mass spectrometry assay, or medium alone, for the cytotoxicity assay, were added to the low control wells, on the previously prepared 384-well compound plates, resulting in 50,000 cells/well or 0 cells/well respectively. IFN-γ and LPS were added to the remaining cell suspension at final concentrations of 100 ng/ml and 50 ng/ml respectively, and 50 μL of the stimulated cells were added to all remaining wells on the 384-well compound plates. The plates, with lids, were then placed in a 37 °C, 5% CO2 humidified incubator for 2 days.
(§4) Following incubation, the 384-well plates were removed from the incubator and allowed to equilibrate to room temperature for 30 minutes. For the cytotoxicity assay, CellTiter-Glo® was prepared according to the manufacturer's instructions, and 40 μL were added to each plate well. After a twenty-minute incubation at room temperature, luminescence was read on an EnVision® Multilabel Reader (PerkinElmer Inc., Waltham, Mass.). For the mass spectrometry assay, 10 μL of supernatant from each well of the compound-treated plates were added to 40 μL of acetonitrile, containing 10 μM of an internal standard for normalization, in 384-well, polypropylene, V-bottom plates (Greiner Bio-One, Kremsmünster, Austria) to extract the organic analytes. Following centrifugation at 2000 rpm for 10 minutes, 10 μL from each well of the acetonitrile extraction plates were added to 90 μL of sterile, distilled H2O in 384-well, polypropylene, V-bottom plates for analysis of kynurenine and the internal standard on the RapidFire 300 (Agilent Technologies, Santa Clara, Calif.) and 4000 QTRAP MS (SCIEX, Framingham, Mass.). MS data were integrated using Agilent Technologies' RapidFire Integrator software, and data were normalized for analysis as a ratio of kynurenine to the internal standard. […]

Data set [2] deals with human peripheral blood mononuclear cells (PBMC). As to the kind of experiment: PBMC cytotoxicity assay (CellTiter-Glo). The note with it: 48 h; IFN-γ/LPS-stimulated human PBMC, 2 days, CellTiter-Glo cytotoxicity (pCC50); read-out: PBMC TOX pIC50 (converted). Format: cell-based. Here is the method:
as §1, §2, §3, §4
For orientation: In ATP-based viability assays light output follows the ATP content of the culture.

On to `O=C(Nc1ccc(Cl)cc1)[C@@H]1C[C@]12CC[C@H](c1ccnc3ccccc31)CC2` (relative stereo) [Example 1, cis-N-(4-chlorophenyl)-6-(quinolin-4-yl)spiro[2.5]octane-1-carboxamide], for which the F in “Rat PK” (PO, 3 mg/kg) stood at 60.2%. Also, in “Rat PK” (rat, in vivo, IV, 1 mg/kg), the AUC(0-inf) (as a rule, the area under the concentration-time curve extrapolated to infinity) was determined as 4660 ng·h/mL; the exposure AUC(0-t) (as a rule, the area under the concentration-time curve up to a stated or last time point) worked out at 4450 ng·h/mL; the MRT inf (commonly the average time that molecules of a dose stay in the body) was 7.35 h; the clearance – broadly, the rate of elimination divided by the concentration – was 3.58 mL/min/kg. Moreover, in “Rat PK” (rat, in vivo, IV, 1 mg/kg), the half-life (commonly the time in which the quantity being followed falls by half) is 5.36 h. In “Rat PK” (rat, in vivo, IV, 1 mg/kg, read-out: Vss), the Vd worked out at 1.58 L/kg. For the same molecule, in the data set “Rat PK” (rat, in vivo, PO, 3 mg/kg), the AUC(0-inf) amounted to 14000 ng·h/mL; the AUC(0-t) is 12300 ng·h/mL; the highest level (Cmax) was 1000 ng/mL; the Tmax – broadly, the time from dosing to the highest level – came out at 1 h. This molecule also showed a half-life in the data set “Rat PK” (rat, in vivo, PO, 3 mg/kg) of 7.16 h. Also, the IC50 in data set [1] was 63.1 nM. Further, the IC50 in data set [2] was greater than 10000 nM.
Take `O=C(Nc1ccc(Cl)cc1)[C@@H]1C[C@]12CC[C@@H](c1ccnc3ccccc31)CC2` (relative stereo) [Example 2, trans-N-(4-chlorophenyl)-6-(quinolin-4-yl)spiro[2.5]octane-1-carboxamide]: the IC50 in data set [1] was 126 nM; in data set [2], greater than 10000 nM.
The like results for `O=C(NC1CC2(CCC(c3ccnc4ccccc34)CC2)C1)c1ccc(Cl)cc1` (centres unmarked) [Example 3, 4-chloro-N-(7-(quinolin-4-yl)spiro[3.5]nonan-2-yl)benzamide] were, in that order, 79.4 nM and greater than 10000 nM.
Take `O=C(NC1CC2(CCC(c3ccnc4ccccc34)CC2)C1)c1ccc(Cl)s1` (centres unmarked) [Example 4, 5-chloro-N-(7-(quinolin-4-yl)spiro[3.5]nonan-2-yl)thiophene-2-carboxamide]: in “Rat PK” (rat, in vivo, PO, 3 mg/kg), the total exposure AUC(0-inf) amounted to 15500 ng·h/mL; the AUC(0-t) is 14400 ng·h/mL; the Cmax (as a rule, the highest concentration seen after dosing) is 1140 ng/mL; the Tmax amounted to 3 h. In “Rat PK” (rat, in vivo, PO, 3 mg/kg), this molecule showed a half-life of 5.89 h. Further, in data set [1], the IC50 is 20 nM. Besides, the IC50 in data set [2] was greater than 10000 nM.
As to `O=C(CC1CC2(CCC(c3ccnc4ccccc34)CC2)C1)Nc1ccc(Cl)cc1` (centres unmarked) [Example 5, N-(4-chlorophenyl)-2-(7-(quinolin-4-yl)spiro[3.5]nonan-2-yl)acetamide], the IC50 in data set [1] was 63.1 nM; in data set [2], greater than 10000 nM.
For `O=C(Nc1ccc(Cl)cc1)C1CC2(CCC(c3ccnc4ccc(F)cc34)CC2)C1` (centres unmarked) [Example 6, N-(4-chlorophenyl)-7-(6-fluoroquinolin-4-yl)spiro[3.5]nonane-2-carboxamide], the IC50 in data set [1] was 15.8 nM; in data set [2], greater than 10000 nM.
